Experimental data published in patent US12569477B2, “Compositions for synergistically enhancing mitochondrial function” (MITOCHOLINE LTD, priority 2017, dated 2026).

What was measured:
whole-brain ATP levels = details: for ATP, % (ATP levels in the brain at 15th min after ischemia onset, in percent to baseline): male rats, 10 mg/kg for 7 days, global ischemia, mean±SEM, baseline 100%, saline 35.3 ± 3.0
Procedure: Then global ischemia was induced in rats by cardiac arrest under anesthesia and whole-brain ATP levels were measured by 31P NMR in vivo for 15 min. Results are presented in Table 3 as mean±SEM ATP levels in the brain at 15th min after ischemia onset, in percent to baseline (accepted for 100%).

primary myotubes [1] = test: Autophagy/mitophagy: co-localization of mitochondria and lysosomes in primary myotubes; format: cell-based, rat; details: 50 μM DiSU+20 μM NAM or single components in corresponding molar amounts
Description: The upper panels show confocal images of cells loaded with two dyes MitoTracker Green (labeling mitochondria) and LysoTracker Red (labeling lysosomes); the lower panel: quotative evaluation of co-localization of mitochondria and lysosomes in cells. […] Values are presented as mean±SD. **P<0.001. Independent experiments (n) are indicated as dots in the scatter plot.

[2] = system: primary neurons and astrocytes; test: Mitochondrial NADH autofluorescence in primary neurons and astrocytes; format: cell-based, mouse; details: for NADH autofluorescence, % of control: after 20 min of incubation; for NADH autofluorescence, % of control / Initial change of mitochondrial NADH level on application: DiSU 50 μM, NAM 20 μM, sodium succinate 50 μM
Procedure: Mixed cultures of cortical neurons and glial cells were prepared as described, from mouse pups 1-3 days postpartum. Neurons were easily distinguishable from glia: they appeared phase bright, had smooth rounded somata and distinct processes, and positioned just above the focal plane of the glial layer. Cells were used at 14-21 DIV. Experiments were conducted in HBSS solution at the 37° C.
To estimate the mitochondrial pool of NADH, maximal activation of mitochondrial respiration is induced by uncoupler FCCP (mitochondrial NADH is taken 0) followed by inhibition of respiration by NaCN (NADH is maximal due to inhibition of consumption). This set up provides evaluation of several characteristics: the rate of NADH production in TCA cycle (recovery of the NADH signal after NaCN), total mitochondrial pool and redox index.

primary myotubes [3] = test: Mitochondrial membrane potential (TMRM) in primary myotubes; format: cell-based, rat; details: DiSU 50 μM, NAM 20 μM, or both (2:1:0.4); n=67 myotubes
Procedure: (§1) Primary Skeletal Muscle Cell culture. Primary myotube cells were obtained from postnatal day 0-2 (P0-P2) rat pups which were sacrificed by decapitation. Briefly, the rats were immersed in 70% ethanol and the hind-limbs removed under a dissection microscope, in dissection solution containing Dulbecco's Phosphate Buffered Saline (PBS) with penicillin streptomycin (5000 units/ml) and Amphotericin B (2.5 mg/L). The tissues were then digested in 0.2% collagenase solution at 37° C. for 30-40 minutes.
The reaction was stopped by adding 2-3 ml fetal bovine serum (FBS), and the tissue suspension was centrifuged at 2010 rpm (700 g) for 10 minutes. The cell pellet was resuspended in pre-warmed growth medium, Dulbecco's modified Eagle's medium (DMEM), containing 20% FBS, 100 i.u./ml penicillin and 200 i.u./ml streptomycin], and plated on 22 mm coverslips that were pre-coated with 0.2% gelatin for 1 hour at 37° C. […]
Tetramethyl rhodamine methyl ester (TMRM) was used to study the changes of the mitochondrial membrane potential (Δψm). […] TMRM fluorescence was excited at 543 nm (HeNe laser), and emission was measured at >560 nm. […] Therefore, the changes in potential are reflected by changes in fluorescence intensity within the mitochondria which is measured after thresholding out the background signal from the cytosol to give a mean value per pixel within the mitochondrial population of a cell. […]

[4] = system: cortical neurons and glial cells; test: ATP levels in mixed primary cultures of cortical neurons and glial cells (AT1.03 probe, confocal microscopy); details: same treatments as ATP, control 0
Procedure: Mixed primary cultures of cortical neurons and glial cells were prepared from mouse pups 1-3 days postpartum, as described by Vaarmann A. et al., 2010 (Cell Calcium 2010, 48(2-3):176-82). For measurements of ATP, the cells at 14-21 DIV were transfected for 24 h with the ATP sensing probe AT1.03 (as described in Imamura H et al., PNAS 2009, 106(37):15651-15656) using Lipofectamine 2000 according to the manufacturer's instructions. […] Then, ATP levels in cells were measured using confocal microscopy. […] All data presented were obtained from at least 5 coverslips and 2-3 different cell preparations.
Mean of ATP levels in non-treated cells (control) was accepted for 100%. Effects of the treatments on ATP levels in cells (ΔATP) were calculated by formula: ΔATP=ATPtreat−ATPcontrol, wherein ATPtreat is ATP level in treated cells and ATPcontrol is ATP levels in control cells.

primary myotubes [5] = test: Mitochondrial NADH redox index and NADH pool in myotube cultures; format: cell-based, rat; details: blend 1: 100 μM DiSU+40 μM NAM; blend 2: 50 μM DiSU+20 μM NAM; choline (100, succinate (50 μM), NAM (50 μM)); FIG. 1B
Procedure: as §1
The reaction was stopped by adding 2-3 ml fetal bovine serum (FBS), and the tissue suspension was centrifuged at 2010 rpm (700 g) for 10 minutes. The cell pellet was resuspended in pre-warmed growth medium, Dulbecco's modified Eagle's medium (DMEM), containing 20% FBS, 100 i.u./ml penicillin and 200 i.u./ml streptomycin], and plated on 22 mm coverslips that were pre-coated with 0.2% gelatin for 1 hour at 37° C. Cells were then cultured in a humidified CO2 incubator (5% CO2 in air) at 37° C. After 2 or 3 days, the medium was changed to a low-serum medium (DMEM containing 10% FBS without antibiotics), and was subsequently renewed every 3 or 4 days. All experiments were performed in vitro between days 2 and 11 in culture when spindle-shaped myoblasts had proliferated and aligned themselves for fusion (˜70% confluency).

| Compound | ATP, % (ATP levels in the brain at 15th min after ischemia onset, in percent to baseline) (whole-brain ATP levels) [%] | Autophagy (co-localization of mitochondria and lysosomes) (primary myotubes [1]) | Increase in TMRM fluorescence (mitochondrial membrane potential) compared to control (primary myotubes [3]) | NADH autofluorescence, % of control [2] | Initial change of mitochondrial NADH level on application [2] | also measured |
| --- | --- | --- | --- | --- | --- | --- |
| C[N+](C)(C)CCO.[Cl-] [Choline chloride, choline chloride] | 36.8 ± 5.0 | – | – | – | – | – |
| O=C([O-])CCC(=O)[O-].[K+].[K+] [Dipotassium succinate, dipotassium succinate] | 40.9 ± 9.0 | – | – | – | – | – |
| NC(=O)c1cccnc1 [NAM, nicotinamide] | – | not | increase | – | – | Mitochondrial NADH pool, % of control ([2]; NAM 20 μM alone, short term (15-20 min)): 116±8 % of control |
| O=C(O)c1cccnc1 [Nicotinic acid, nicotinic acid] | – | – | – | – | – | ΔATP, % (ATPtreat−ATPcontrol) [4]: +1% |
| O=C([O-])CCC(=O)[O-].[Na+].[Na+] [Sodium succinate, sodium succinate] | 34.3 ± 2.4 | not | – | not detected a noticeable increase | fast and significant decrease | NADH redox index (primary myotubes [5]): did not induce significant changes |
| choline succinate salt (2:1) [DiSU] | 55.5 ± 4.8 | significantly increase | increase | 123±6 % of control | only slight initial decrease | ATP levels in the brain under normoxia (whole-brain ATP levels; rats, normoxia): did not affect |
